≈ marks a conversion by molar mass, not a printed value. Where two headings read alike, the source gives them in different places.
Experiments:
[1] = system: human colon adenocarcinoma cells sensitive (LoVo) to doxorubicin; test: Colony inhibition test after 4 h treatment, LoVo (in vitro cytotoxicity); format: cell-based; conditions: read-out: LoVo ID50
Method: (§1) The glycosides are antitumor agents. The activity of a representative compound of formula (I), 4-demethoxy-4-amino-daunorubicin (Ia), has been assessed by comparing its in vitro cytotoxicity against that of daunorubicin (DNR) in human colon adenocarcinoma cells sensitive (LoVo) or resistant (LoVo/DX) to doxorubicin.
(§2) Colony inhibition test after 4 h. treatment.

[2] = system: human colon adenocarcinoma cells resistant (LoVo/DX) to doxorubicin; test: Colony inhibition test after 4 h treatment, LoVo/DX (in vitro cytotoxicity); format: cell-based; conditions: read-out: LoVo/DX ID50
Method: as §1, §2

[3] = system: disseminated Gross leukaemia; test: In vivo activity against disseminated Gross leukaemia in mice, treatment i.v. on day 1 after tumor inoculum
Text: The in vivo activities of (Ia) and DNR against disseminated Gross leukaemia in mice also determined.
Treatment i.v on day 1 after tumor inoculum
TOX represents toxic death

## CC(=O)[C@]1(O)Cc2c(O)c3c(c(O)c2[C@@H](O[C@H]2C[C@H](N)[C@H](O)[C@H](C)O2)C1)C(=O)c1c(N)cccc1C3=O [Ia, 4-demethoxy-4-amino-daunorubicin]
[1]; LoVo cells (doxorubicin-sensitive), 4 h treatment, colony inhibition
  IC50: 0.7 µg/mL (≈ 1.37 µM)
[2]
  IC50: 99 µg/mL (≈ 193 µM)
[3]; 1.6 mg/Kg i.v. on day 1
  T/C %: 183%
  TOX (toxic death): 0/10
[3]; 1.9 mg/Kg i.v. on day 1
  T/C %: 192%
  TOX (toxic death): 0/10
[3]; 2.29 mg/Kg i.v. on day 1
  T/C %: 200%
  TOX (toxic death): 1/10

## COc1cccc2c1C(=O)c1c(O)c3c(c(O)c1C2=O)C[C@@](O)(C(C)=O)C[C@@H]3O[C@H]1C[C@H](N)[C@H](O)[C@H](C)O1 [DNR, daunorubicin]
[1]; LoVo, 4 h
  IC50: 50.3 µg/mL (≈ 95.4 µM)
[2]
  IC50: 1800 µg/mL (≈ 3420 µM)
[3]; 10 mg/Kg i.v. on day 1
  T/C %: 133%
  TOX (toxic death): 0/10
[3]; 15 mg/Kg i.v. on day 1
  T/C %: 167%
  TOX (toxic death): 0/10
[3]; 22.5 mg/Kg i.v. on day 1
  T/C %: 200%
  TOX (toxic death): 1/10

— US4965351A, “4-demethoxy-4-amino-anthracyclines” (Farmitalia Carlo Erba S.R.L., priority 1987, dated 1990)
